Assay: recombinant UMI read abundance after kanamycin selection (control-corrected) (log10(CPM+1)); higher = more efficient recombination; extreme values may be limits of the assay; sequences stand for … in AGTGCAGAGAAAATCGGCCAGTTTTCTCTGCCTGCAGTCCGCATGCCGTGGGACCCCTTGGGTTCTAACCTGTTGCCTAGATTTATGCAGCGGACTGCCTTTCTCCCAAAGTGATAAACCGG…AGGTTGGTTTCACT; site = the 11-nt donor
Outline: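 The measure is log10(CPM+1) for recombinant UMIs. These were PCR-amplified across the donor–target junction and sequenced after Escherichia coli carrying a donor and donor-binding-loop pair library and a target plasmid with T7-inducible IS621 bridge recombinase was plated on IPTG (0.07 mM) plus kanamycin or unselected. CPM were averaged over two replicates and scaled by control-derived factors.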
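Further: IS621 bridge recombinase in Escherichia coli cells against a fixed T5 target plasmid.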

For “GATCTTCCATGGACCGGTTTTCCCGGTAATCCGTATTTGAT (site GATCTTCCTAT)”, which “recombinant UMI read abundance (log10)” value is on record?
Its value is 0.048.

Which “recombinant UMI read abundance (log10)” value does the source give for “GGCCACCCATGGACCGGTTTTCCCGGTAATCCGTATTTGTT (site GGCCAGCCTAA)” here?
Its value is 0.

For “CGAGGACCATGGACCGGTTTTCCCGGTAATCCGTATTTGGT (site CGAGGACCTCC)”, which “recombinant UMI read abundance (log10)” value is on record?
Its value is 0.0157.

With “CAGAATACATGGACCGGTTTTCCCGGTAATCCGTATTTGCA (site CAGAATACTTG)” as the sequence, how does the “recombinant UMI read abundance (log10)” value read?
Its value is 2.15.

Which “recombinant UMI read abundance (log10)” value does the source give for “TGTTCCTCATGGACCGGTTTTCCCGGTAATCCGTATTTGTC (site TGTTCCTCTGA)” here?
The value was 0.553.

Which “recombinant UMI read abundance (log10)” value does the source give for “TGTTCTTCATGGACCGGTTTTCCCGGTAATCCGTATTTGCC (site TGTTCTTCTGG)” here?
Its value is 1.21.

Which “recombinant UMI read abundance (log10)” value does the source give for “ACCCTTTCATGGACCGGTTTTCCCGGTAATCCGTATTTGAC (site ACCCTTTCTGT)” here?
Its value is 0.

Which “recombinant UMI read abundance (log10)” value does the source give for “CAACCTGCATGGACCGGTTTTCCCGGTAATCCGTATTTGGC (site CAACCTGCTGC)” here?
Its value is 0.

Which “recombinant UMI read abundance (log10)” value does the source give for “ATCTATTCATGGACCGGTTTTCCCGGTAATCCGTATTTGAC (site ATCTATGCTGT)” here?
The value was 0.

For “AGGAAGACATGGACCGGTTTTCCCGGTAATCCGTATTTGCA (site ACGAAGACTCG)”, which “recombinant UMI read abundance (log10)” value is on record?
Its value is 0.0101.

Which “recombinant UMI read abundance (log10)” value does the source give for “CGGACGACATGGACCGGTTTTCCCGGTAATCCGTATTTGGT (site CGGACGACTAC)” here?
The value was 1.25.

Which “recombinant UMI read abundance (log10)” value does the source give for “TAGAATTCATGGACCGGTTTTCCCGGTAATCCGTATTTGCA (site TAGAATGCTTG)” here?
The value was 0.

Which “recombinant UMI read abundance (log10)” value does the source give for “ACATCGACATGGACCGGTTTTCCCGGTAATCCGTATTTGTG (site ACATCGACTCA)” here?
The value was 0.245.

With “TAGGAATCATGGACCGGTTTTCCCGGTAATCCGTATTTGCA (site TAGGAATCTGG)” as the sequence, how does the “recombinant UMI read abundance (log10)” value read?
Its value is 0.896.

For “CGATCGACATGGACCGGTTTTCCCGGTAATCCGTATTTGTT (site CGATCGACTCA)”, which “recombinant UMI read abundance (log10)” value is on record?
Its value is 0.0164.

For “GTATGCGCATGGACCGGTTTTCCCGGTAATCCGTATTTGTA (site GTATGCTCTTA)”, which “recombinant UMI read abundance (log10)” value is on record?
Its value is 1.33.

With “TACGGCCCATGGACCGGTTTTCCCGGTAATCCGTATTTGTT (site AACGGCCCTAA)” as the sequence, how does the “recombinant UMI read abundance (log10)” value read?
The value was 0.0182.

Which “recombinant UMI read abundance (log10)” value does the source give for “CCTAACGCATGGACCGGTTTTCCCGGTAATCCGTATTTGCT (site CCTAACGCTAG)” here?
Its value is 0.

For “CATTTGGCATGGACCGGTTTTCCCGGTAATCCGTATTTGGA (site CAGTTGGCTTC)”, which “recombinant UMI read abundance (log10)” value is on record?
Its value is 0.466.

For “TGTTAACCATGGACCGGTTTTCCCGGTAATCCGTATTTGCT (site TGTTAACCTAG)”, which “recombinant UMI read abundance (log10)” value is on record?
Its value is 0.

Which “recombinant UMI read abundance (log10)” value does the source give for “CGATCGACATGGACCGGTTTTCCCGGTAATCCGTATTTGTG (site CGATCGACTTA)” here?
The value was 0.319.

For “GGATAGCCATGGACCGGTTTTCCCGGTAATCCGTATTTGCC (site GGATAGCCTGG)”, which “recombinant UMI read abundance (log10)” value is on record?
The value was 0.

With “CGAGTATCATGGACCGGTTTTCCCGGTAATCCGTATTTGGC (site CTAGTATCTGT)” as the sequence, how does the “recombinant UMI read abundance (log10)” value read?
Its value is 2.29.

Which “recombinant UMI read abundance (log10)” value does the source give for “CAGTCGACATGGACCGGTTTTCCCGGTAATCCGTATTTGGA (site CAGTCGACTAC)” here?
The value was 0.0073.

Which “recombinant UMI read abundance (log10)” value does the source give for “AGATTAGCATGGACCGGTTTTCCCGGTAATCCGTATTTGAT (site AGATTAGCTAT)” here?
Its value is 2.09.

With “TACAATCCATGGACCGGTTTTCCCGGTAATCCGTATTTGAG (site TACAATCCTCT)” as the sequence, how does the “recombinant UMI read abundance (log10)” value read?
Its value is 0.531.

With “TGGATACCATGGACCGGTTTTCCCGGTAATCCGTATTTGCG (site TGGATACCTCG)” as the sequence, how does the “recombinant UMI read abundance (log10)” value read?
The value was 0.

With “GGTTATCCATGGACCGGTTTTCCCGGTAATCCGTATTTGCT (site GCTTATCCTAG)” as the sequence, how does the “recombinant UMI read abundance (log10)” value read?
Its value is 0.196.

Which “recombinant UMI read abundance (log10)” value does the source give for “GTGCGTGCATGGACCGGTTTTCCCGGTAATCCGTATTTGGT (site GTGCTTGCTAC)” here?
The value was 0.00274.

With “TTAGCCGCATGGACCGGTTTTCCCGGTAATCCGTATTTGAC (site TTAGCCGCTGT)” as the sequence, how does the “recombinant UMI read abundance (log10)” value read?
The value was 2.72.

Which “recombinant UMI read abundance (log10)” value does the source give for “GTCGTTCCATGGACCGGTTTTCCCGGTAATCCGTATTTGGT (site GTCGTTCCTAC)” here?
The value was 0.0042.

For “GAGTCGACATGGACCGGTTTTCCCGGTAATCCGTATTTGGG (site CAGTCGACTCC)”, which “recombinant UMI read abundance (log10)” value is on record?
Its value is 0.0177.

For “ATAGCGACATGGACCGGTTTTCCCGGTAATCCGTATTTGCG (site ATAGCGACTCG)”, which “recombinant UMI read abundance (log10)” value is on record?
The value was 2.61.

With “CGGATTCCATGGACCGGTTTTCCCGGTAATCCGTATTTGTT (site CGGAGTCCTAA)” as the sequence, how does the “recombinant UMI read abundance (log10)” value read?
Its value is 0.0137.

Which “recombinant UMI read abundance (log10)” value does the source give for “ACATCTTCATGGACCGGTTTTCCCGGTAATCCGTATTTGTG (site ACATCTCCTCA)” here?
The value was 0.0151.

For “GTTGTCGCATGGACCGGTTTTCCCGGTAATCCGTATTTGCG (site GTTGTCGCTCG)”, which “recombinant UMI read abundance (log10)” value is on record?
The value was 0.974.

Which “recombinant UMI read abundance (log10)” value does the source give for “AACCGCCCATGGACCGGTTTTCCCGGTAATCCGTATTTGAT (site AACCGACCTAT)” here?
Its value is 0.0035.

For “ATAAAGCCATGGACCGGTTTTCCCGGTAATCCGTATTTGAC (site ATAAGGCCTGT)”, which “recombinant UMI read abundance (log10)” value is on record?
The value was 0.
